The values below come from US20250206780A1, “CYCLIC PEPTIDES AND THEIR USE FOR THE TREATMENT OF DISEASES ASSOCIATED WITH DICARBONYLS LIKE METHYLGLYOXAL” (UNIVERSITÄT HEIDELBERG, priority 2022, published 2025).

Starred links: 1 amine or outer side, 2 acyl side, 3 side chain; linkers in the order of their positions; H or OH if unused. Positions of bridges follow the written chain, without caps; N, C: chain ends. Residues, ends and D or L forms follow the SMILES beside them. Groups on a side chain read outwards from the residue. *: point of attachment. d(γGlu) = O=C(O)[C@@H](CCC(=O)[*:2])N[*:1]; C16 diacid = O=C(O)CCCCCCCCCCCCCCC(=O)*; Dap = NC[C@H](N)C(=O)O

For data set [1] the following is noted: Bowman et al., 1996; cited from earlier work.
On the set-up of data set [2]: species or system mice. The note with it: mouse, in vivo. As for the experimental part:
Animals were injected with Dap3 and blood was collected into EDTA containing tubes at indicated time points with n=3 per time point. After centrifugation EDTA plasma was stored at −80° C. until analysis. Dap3 was quantified by LC MS/MS as described in section 6.
6. Detection of Dap3 and MG-Modified Dap3 by LC-MS/MS A Dap3-MG standard was prepared by incubation of Dap3 with methylglyoxal in 0.1 M phosphate buffer followed by purification by preparative HPLC. The peptide CycK(e-Hdd)R4E was employed as internal standard which was added to the standard curve and plasma samples prior to precipitation. Prior to analysis 2 parts acetonitrile were added to the plasma, vortexed and centrifuged for 10 min at 13,000 g. The supernatant was analysed using an ACQUITY UPLC I fitted with a Acquity UPLC BEH C18 column (Waters, 2.1 mm*100 mm, […]) with a pre-column (2.1×5 mm, 1.7 μm) and a Xevo TQ-XS mass spectrometer (Waters, USA). Solvent A was water+0.1% formic acid and solvent B was acetonitrile+0.1% formic acid. A linear gradient from 0-100% solvent B at a flow rate of 0.2 ml/min over 20 min and a column temperature of 30° C. was used. The detailed parameters for the quantification of Dap3, Dap3-MG and CycK(e-Hdd)R4E, are described below

As for `N=C(N)NN` [Aminoguanidine], the half-life entry in data set [1] is listed as “very short”. For `NC[C@H](N)C(=O)NCCCC[C@@H]1NC(=O)[C@H](CCCCNC(=O)[C@@H](N)CN)NC(=O)[C@H](CCC(=O)O)NC(=O)[C@H](CCCCNC(=O)[C@@H](N)CN)NC(=O)[C@H](CCCCNC(=O)CC[C@@H](NC(=O)CCCCCCCCCCCCCCC(=O)O)C(=O)O)NC(=O)CC[C@@H](C(=O)O)NC1=O` [Dap3] (K([d(γGlu)-C16 diacid])K(Dap)EK(Dap)K(Dap)E-OH; lactam N-6), in data set [2], the plasma half-life result is on record as “long plasma half-life”.
